The values below come from patent US11267786B2, “[3.3.1] bicyclo compounds as indoleamine 2,3-dioxygenase inhibitors” (Merck Sharp & Dohme Corp., priority 2018, dated 2022).

T1 sequence (P14902 whole entry): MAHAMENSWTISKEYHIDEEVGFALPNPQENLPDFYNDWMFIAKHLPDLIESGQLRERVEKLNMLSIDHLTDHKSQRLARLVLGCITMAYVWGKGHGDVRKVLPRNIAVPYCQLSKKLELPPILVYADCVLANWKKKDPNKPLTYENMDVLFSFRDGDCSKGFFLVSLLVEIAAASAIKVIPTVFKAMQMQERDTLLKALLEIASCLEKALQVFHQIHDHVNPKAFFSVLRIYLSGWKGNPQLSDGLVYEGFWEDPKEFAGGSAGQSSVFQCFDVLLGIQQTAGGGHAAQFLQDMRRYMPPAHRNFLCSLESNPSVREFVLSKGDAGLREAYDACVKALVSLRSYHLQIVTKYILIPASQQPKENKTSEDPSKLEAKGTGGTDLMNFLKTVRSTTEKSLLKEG

The first assay addresses T1, IDO1 (Homo sapiens, UniProt P14902). Nature of the assay: IDO1 Human Whole Blood Assay. In kind it is cell-based. On the set-up: Human whole blood was drawn in sodium heparin coated tubes from healthy internal donors; from tissue; host or cells: human whole blood from healthy donors, stimulated with LPS and IFNγ. The following applies: human whole blood stimulated with LPS and IFNγ 100 ng/mL, 18 h, kynurenine by LC/MS/MS. The protocol:
IDO1 Human Whole Blood Assay
Compounds to be tested were serially diluted in ten 3-fold steps in DMSO starting from 10 mM. 3 μL of compound dilutions or DMSO alone were then dispensed from the dilution plate into a polypropylene 96-well assay plate containing 97 μL of RPMI medium using an Echo 555 acoustic liquid handler (Labcyte). LPS and IFNγ were prepared in RPMI medium to a 10× of final conc. (1000 ng/mL), final concentration is 100 ng/mL.
Human whole blood was drawn in sodium heparin coated tubes from healthy internal donors. Two hundred forty μL of blood was transferred to each of the wells of a v-bottom 96 well plate. Thirty μL of compound was transferred from intermediate dilution plate, and incubated for 15 min. Thirty μL from stimulants was then transferred to blood and mixed thoroughly. Plate was covered with breathable membrane and incubated at 37° C. for overnight (18 h).
On day 2 isotope labeled standard of kynurenine and tryptophan was made in water at 10× concentration and 30 μL was added to the blood at 3 μM final concentration. […] Twenty μL of supernatant was carefully transferred to a 384 well plate containing 40 μL of 0.1% formic acid in water and analyzed by LC/MS/MS.
LC/MS/MS analyses were performed using Thermo Fisher's LX4-TSQ Quantum Ultra system. […] Compounds were titrated and IC50's were calculated by 4 parameter sigmoidal curve fitting formula.
As to `O=C(Nc1ccc(Cl)cc1)C1CCC2CC1CCC2c1ccnc2ccc(F)cc12` (single isomer, unassigned) [Example 1, N-(4-chlorophenyl)-6-(6-fluoroquinolin-4-yl)bicyclo[3.3.1]nonane-2-carboxamide], half-maximal inhibition (IC50) was put at 306 nM.

The target in a further assay is T1, IDO1. Nature of the assay: IDO1 Cellular Assay in Hela Cells Stimulated with IFNγ. In kind it is cell-based. The note with it: 100 ng/mL IFNγ, 300 uM L-tryptophan, about 48 hours, fluorescence readout. As for the experimental part:
IDO1 Cellular Assay in Hela Cells Stimulated with IFNγ
Hela cells were cultured in complete Hela culture medium (90% EMEM, 10% heat-inactivated fetal bovine serum) and expanded to about 1×10^9 cells. The cells were then collected and frozen down at 1×10^7 cells/vial in 1 mL frozen medium (90% complete Hela culture medium, 10% DMSO)
Compounds to be tested were serially diluted in ten 3-fold steps in DMSO starting from 10 mM DMSO stocks in Echo low volume plate(s). Compound dilutions or DMSO alone were then dispensed from the dilution plate(s) into Greiner black 384-well assay plate(s) (catalog #781086, 50 nL/well) using an Echo 550 acoustic liquid handler (Labcyte).
Frozen Hela cells were thawed and transferred into Hela assay medium (99% complete Hela culture medium, 1% Pen/Strep) with 20 mL medium/vial of cells. The cells were spun down at 250 g in a table top centrifuge for 5 min and suspended in same volume of Hela assay medium. The cells were then counted and adjusted to a density of 2×10^5 cells/ml in Hela assay medium. Sterile L-tryptophan were added to the cells with final concentration of 300 uM L-tryptophan. A small aliquot (2 mL/plate) of Hela cells were set aside and were not treated with IFNγ, to serve as the Max-E control.
Hela cells with and without IFNγ were dispensed to the respective wells of 384-well assay plates containing the compounds. The plates were incubated for about 48 hours at a 37° C., 5% CO2 incubator. Afterwards, 12 μL of 0.5 M methyl isonipecotate in dimethyl sulfoxide were added into each well and the plates were sealed and incubated at 37° C. without CO2 overnight. The plates were centrifuged for 1 min at 200×g. The resulting fluorescence was measured in a Spectramax plate reader (Molecular Devices) with a 400 nm excitation filter and a 510 nm emission filter.
The fluorescence intensity of each well was corrected for the background observed in wells with non-IFNγ-treated cells and was expressed as a fraction of the intensity observed in wells of IFNγ-treated cells and DMSO only. Potencies were calculated by linear least squares fit to the four parameter logistic IC50 equation.
`O=C(Nc1ccc(Cl)cc1)C1CCC2CC1CCC2c1ccnc2ccc(F)cc12` (single isomer, unassigned) [Example 1, N-(4-chlorophenyl)-6-(6-fluoroquinolin-4-yl)bicyclo[3.3.1]nonane-2-carboxamide]: inhibition was half-maximal at 2 nM (IC50).

In the case of `O=C(Nc1ccc(Cl)cc1)C1CCC2CC1CCC2c1ccnc2ccc(F)cc12` (single isomer, unassigned) [Example 2, N-(4-chlorophenyl)-6-(6-fluoroquinolin-4-yl)bicyclo[3.3.1]nonane-2-carboxamide], the IC50 (commonly the concentration needed to halve the response being measured) amounted to 260 nM.

Turning to `O=C(Nc1ccc(Cl)cc1)C1CCC2CC1CCC2c1ccnc2ccc(F)cc12` (single isomer, unassigned) [Example 3, N-(4-chlorophenyl)-6-(6-fluoroquinolin-4-yl)bicyclo[3.3.1]nonane-2-carboxamide], the IC50 amounted to 127 nM.

The compound `O=C(Nc1ccc(Cl)cc1)C1CCC2CC1CCC2c1ccnc2ccc(F)cc12` (single isomer, unassigned) [Example 4, N-(4-chlorophenyl)-6-(6-fluoroquinolin-4-yl)bicyclo[3.3.1]nonane-2-carboxamide] gave an IC50 of 2510 nM.

`O=C(NC1CCC2CC1CCC2c1ccnc2ccc(F)cc12)c1ccc(Cl)cc1` (single isomer, unassigned) [Example 5, 4-Chloro-N-(6-(6-fluoroquinolin-4-yl)bicyclo[3.3.1]nonan-2-yl)benzamide] gave an IC50 of 770 nM.

Turning to `O=C(NC1CCC2CC1CCC2c1ccnc2ccc(F)cc12)c1ccc(Cl)cc1` (single isomer, unassigned) [Example 6, 4-Chloro-N-(6-(6-fluoroquinolin-4-yl)bicyclo[3.3.1]nonan-2-yl)benzamide], the IC50 is 1640 nM.

Turning to `O=C(NC1CCC2CC1CCC2c1ccnc2ccc(F)cc12)c1ccc(Cl)cc1` (single isomer, unassigned) [Example 7, 4-Chloro-N-(6-(6-fluoroquinolin-4-yl)bicyclo[3.3.1]nonan-2-yl)benzamide], it took 25 nM to reach half-maximal inhibition (IC50).

Compound `O=C(NC1CCC2CC1CCC2c1ccnc2ccc(F)cc12)c1ccc(Cl)cc1` (single isomer, unassigned) [Example 8, 4-Chloro-N-(6-(6-fluoroquinolin-4-yl)bicyclo[3.3.1]nonan-2-yl)benzamide] yielded an IC50 of 2500 nM.
